According to PubChem BioAssay (NCI):
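How tested: cells in 96-well plates exposed to compound for 48 hours at five concentrations. Definition used: TGI = concentration required for complete inhibition of growth.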

Tests used:
Experiment in all cases: NCI anticancer screen, dose series, 48 h
COLO 205 colon = test system: COLO 205 colon
RXF 393 renal = test system: RXF 393 renal
HL-60(TB) leukemia = test system: HL-60(TB) leukemia
SR leukemia = test system: SR leukemia
PC-3 prostate = test system: PC-3 prostate
CCRF-CEM leukemia = test system: CCRF-CEM leukemia
MALME-3M melanoma = test system: MALME-3M melanoma
RPMI-8226 leukemia = test system: RPMI-8226 leukemia
SK-MEL-28 melanoma = test system: SK-MEL-28 melanoma
SF-295 CNS = test system: SF-295 CNS
LOX IMVI melanoma = test system: LOX IMVI melanoma
HT29 colon = test system: HT29 colon
SNB-75 CNS = test system: SNB-75 CNS
EKVX NSCLC = test system: EKVX NSCLC
U251 CNS = test system: U251 CNS
NCI-H522 lung = test system: NCI-H522 lung
DU-145 prostate = test system: DU-145 prostate
UACC-62 melanoma = test system: UACC-62 melanoma
BT-549 breast = test system: BT-549 breast
OVCAR-4 ovarian = test system: OVCAR-4 ovarian

Row | SMILES | TGI (COLO 205 colon) [µM] | TGI (RXF 393 renal) [µM] | TGI (HL-60(TB) leukemia) [µM] | TGI (SR leukemia) [µM] | TGI (PC-3 prostate) [µM] | TGI (CCRF-CEM leukemia) [µM] | TGI (MALME-3M melanoma) [µM] | TGI (RPMI-8226 leukemia) [µM] | TGI (SK-MEL-28 melanoma) [µM] | TGI (SF-295 CNS) [µM] | TGI (LOX IMVI melanoma) [µM] | TGI (HT29 colon) [µM] | TGI (SNB-75 CNS) [µM] | TGI (EKVX NSCLC) [µM] | TGI (U251 CNS) [µM] | TGI (NCI-H522 lung) [µM] | TGI (DU-145 prostate) [µM] | TGI (UACC-62 melanoma) [µM] | TGI (BT-549 breast) [µM] | TGI (OVCAR-4 ovarian) [µM]
1 | CCOC(=O)/C(=C\NCC(OCC)OCC)c1nc2ccccc2[nH]1 | 39.6 | > 100 | 52.3 | 58.5 | 63.7 | > 100 | 61.5 | 39.5 | 77 | > 100 | 55.4 | 71.1 | 61.6 | 95 | > 100 | 62.1 | > 100 | 33.2 | 62.4 | > 100
2 | COc1ccc(N=C2C(=O)C3=C(OC(C)(C)CC3)c3ccccc32)cc1 | 5.8 | 2.43 | 4.38 | 3.44 | 5.49 | 4.43 | 1.59 | – | 2.48 | 1.56 | 10.3 | 1.57 | 1.96 | 1.86 | 1.65 | 2.45 | 1.57 | 1.74 | 2.58 | 1.51
3 | C=C1C[C@@H](O)[C@@H](Br)C(C)(C)[C@]12CCC(C)(Cl)C(Br)C2 (some centres undefined) | > 33.7 | > 76.1 | 80.8 | > 100 | 8.17 | > 100 | 59.4 | > 100 | > 100 | > 85.3 | 49.5 | > 100 | > 71.5 | 33.4 | > 55.9 | 44.1 | > 100 | > 100 | > 100 | > 100
4 | N#Cc1c(-c2ccccc2)c(N=Nc2ccc(F)cc2)c(=O)n2c1[nH]c1ccccc12 | 13 | 44.6 | 3.68 | 55.8 | > 35.2 | 7.57 | 72.5 | 12.9 | > 100 | 24.8 | > 100 | 12 | 39.4 | 41.3 | 18.1 | 14.7 | > 100 | 26.3 | 89.2 | 31.5
5 | CN(c1ccccc1)S(=O)(=O)c1ccccc1[N+](=O)[O-] | > 100 | > 100 | > 100 | > 100 | > 100 | > 100 | > 100 | > 100 | > 100 | > 100 | > 100 | > 100 | > 100 | > 100 | > 100 | > 100 | > 100 | > 100 | > 100 | > 100
6 | O=C1CCCC2=C(N1)C(=O)C=CC2=O | 33.3 | 62.9 | 73.5 | 57.8 | 29.9 | 28.5 | 56.6 | 60.2 | 60.4 | 56.4 | > 65.8 | 59 | 60 | 53 | 58.8 | 34.8 | 31.2 | 56.7 | 31.1 | 67.6
